Test system: activated neutrophils
Experiment: Oxidative burst in activated neutrophils
Assay type: cell-based
Settings: in vitro
Excerpt: Reactive oxygen species (ROS) released from activated white blood cells cause lung injury as well as fibrotic changes in patients with IPF. […] Thus, the compounds described herein could also provide a method to inhibit the adverse effects of inflammation in a patient. Reduction in systemic pro-inflammatory cytokines (tumor necrosis alpha and interleukin-6) also has the potential to exert a broad anti-inflammatory effect which would supplement the beneficial effect of alleviation of hypoxemia via increased hemoglobin-O2 affinity.

SMILES: O=Cc1ccc(CO)o1 [Compound 5-HMF, 5-hydroxymethyl-2-furfural, reference compound]
- anti-oxidative activity (oxidative burst): does not display this activity

Reference: patent publication US10695330B2, “Methods of treatment” (Global Blood Therapeutics, Inc., priority 2015, dated 2020)
